Laboratory results as given in publication PMC9037180, “Ligand-based design and synthesis of N'-Benzylidene-3,4-dimethoxybenzohydrazide derivatives as potential antimicrobial agents; evaluation by in vitro, in vivo, and in silico approaches with SAR studies” (Journal of Enzyme Inhibition and Medicinal Chemistry, 2022).
Converted amounts (≈) assume the structure as drawn. Where two headings read alike, the source gives them in different places.

Legend:
[1] = system: C. albicans; test: Agar well diffusion assay (antifungal); format: cell-based; details: result in words
Experimental: The agar well diffusion assay was first done to evaluate the antimicrobial activities of the different target compounds (4a–j) against gram-positive bacteria, gram-negative bacteria, and fungi (Table 1A). […] First, the antibacterial activities were tested against S. aureus ATCC 6538, Acientobacter (A. baumanii) ATCC 19606, S. typhi, E. coli, and P. aeruginosa as examples of the most common gram-positive and gram-negative bacteria, in comparison to vancomycin and ceftriaxone as two reference standards. In addition, the antifungal activities were screened against C. albicans, in comparison to amphotericin as a reference standard. […] The antibacterial activities of some tested compounds (4a, 4b, 4h, and 4e) against gram-positive and gram-negative bacteria by agar well diffusion assay are represented in the supplementary data (Figure SI1).
(§1) In vitro evaluation for antifungal activities regarding target compounds (4a–j) as well as reference drug, was done against C. albicans MTCC183 through the zone inhibition technique using well diffusion agar assay in addition to MIC.
A modification of the agar well diffusion method[55] was done to detect the antimicrobial activities of different compounds (4a–j) against gram-positive bacteria, gram-negative bacteria, and fungi. […] The zones of inhibition were measured in cm.

[2] = system: S. typhi clinical isolate; test: Minimal inhibitory concentration (MIC), broth dilution; format: cell-based; details: Salmonella enterica, TYPHI
[3] = system: C. albicans MTCC183; test: as above; format: cell-based; details: Candida albicans, MTCC183
Source text: as §1

[4] = system: E. faecalis, Acientobacter, P. auriginosa, S. aureus, S. typhi, E. coli, C. albicans; test: Average MIC over the nine tested microbial species (SAR); format: cell-based; details: for antimicrobial activity (SAR grading): based on MIC average values; for MIC: read-out: Average MIC
Source text: Herein, we aimed to study the structure-antimicrobial activity relationship of the newly synthesised N'-benzylidene-3,4-dimethoxybenzohydrazide derivatives based on MIC average values[51]^,[52] as represented in the supplementary data (Table SI1). Thereby, the changes in their antimicrobial potential and spectrum upon structural modifications could be unveiled, thus offering clues for structural changes that are capable of increasing the antimicrobial potential.

[5] = system: C. albicans; test: Minimal bactericidal concentration (MBC); format: cell-based; details: Candida albicans
Experimental: (§2) After determining the MIC for the target compounds, the minimal bactericidal concentration (MBC) for each compound that is required to kill each one of the above-mentioned microorganisms was assessed.

[6] = system: E. coli; test: Minimal bactericidal concentration (MBC); format: cell-based; details: Escherichia coli
Experimental: as §2

[7] = system: E. faecalis; test: Minimal bactericidal concentration (MBC); format: cell-based; details: Enterococcus faecalis
Experimental: as §2

[8] = system: S. aureus; test: Minimal bactericidal concentration (MBC); format: cell-based; details: Staphylococcus aureus
Experimental: as §2

[9] = system: Aciento sensitive; test: Minimal bactericidal concentration (MBC); format: cell-based, A. baumanii; details: Acinetobacter baumannii
Experimental: as §2

[10] = system: P. Auriginosa; test: Minimal bactericidal concentration (MBC); format: cell-based, P. aeruginosa; details: Pseudomonas aeruginosa
Experimental: as §2

[11] = system: S. typhi; test: Minimal bactericidal concentration (MBC); format: cell-based; details: Salmonella enterica
[12] = Cytotoxicity on cells using MTT assay; format: cell-based; details: African green monkey, Vero cells (normal mammalian cell line)
Experimental: The newly synthesised compounds were looked deeply into their efficacy using in silico, in vitro, and in vivo approaches. On the other hand, the cytotoxicity assay was performed for the tested compounds using a normal mammalian Vero cell line by the MTT assay[31]^,[32].
Moreover, the cytotoxicity values of the target compounds were determined to calculate their corresponding IC50 values through the MTT assay. The IC50 value indicates the compound’s concentration that is required to inhibit 50% of the target cells.
The MTT (3–(4,5-dimethylthiazol-2-yl)-2,5-diphenyltetrazolium bromide) tetrazolium reduction assay protocol was applied to determine the cytotoxicity of the target compounds (4a–j) on cells.

[13] = system: E. faecalis ATCC 29212; test: Minimal inhibitory concentration (MIC), broth dilution; details: Enterococcus faecalis, ATCC29212
[14] = system: A. baumanii ATCC 19606; test: as above; details: Acinetobacter baumannii, ATCC19606
[15] = system: Acientobacter sensitive; test: as above; details: Acinetobacter baumannii
[16] = system: Aciento MDR; test: as above; details: Acinetobacter baumannii
[17] = system: P. aeruginosa ATCC10145; test: as above; details: Pseudomonas aeruginosa
[18] = system: S. aureus ATCC 6538; test: as above; details: Staphylococcus aureus, ATCC6538
[19] = system: E. coli ATCC 25922; test: as above; details: Escherichia coli
[20] = system: A. baumanii; test: Minimal bactericidal concentration (MBC); format: cell-based; details: Acinetobacter baumannii
Experimental: as §2

SMILES	MIC [2]	MIC [3]	antimicrobial activity (SAR grading) [4]	MIC [4]	MBC [6]	MBC [7]	MBC [8]	MBC [9]	MBC [10]	MBC [11]	MIC [13]	MIC [14]	MIC [15]	MIC [16]	MIC ([17]; ATCC10145)	MIC [18]	MIC ([19]; ATCC25922)	also measured
COc1ccc(C(=O)NN=Cc2ccc(N)cc2)cc1OC [Compound 4a, N'-(4-aminobenzylidene)-3,4-dimethoxybenzohydrazide]	52.1 µM (≈ 15.6 µg/mL)	26.1 µM (≈ 7.82 µg/mL)	high antimicrobial activity	58 µM (≈ 17.4 µg/mL)	105 µM (≈ 31.3 µg/mL)	105 µM (≈ 31.3 µg/mL)	105 µM (≈ 31.3 µg/mL)	105 µM (≈ 31.3 µg/mL)	105 µM (≈ 31.3 µg/mL)	105 µM (≈ 31.3 µg/mL)	52.1 µM (≈ 15.6 µg/mL)	105 µM (≈ 31.3 µg/mL)	52.1 µM (≈ 15.6 µg/mL)	105 µM (≈ 31.3 µg/mL)	52.1 µM (≈ 15.6 µg/mL)	26.1 µM (≈ 7.82 µg/mL)	52.1 µM (≈ 15.6 µg/mL)	zones of inhibition (antifungal activity) [1]: best antifungal activity; MBC [5]: 105 µM (≈ 31.3 µg/mL); IC50 [12]: 407 µM
CCOc1ccc(C=NNC(=O)c2ccc(OC)c(OC)c2)cc1 [Compound 4b, N'-(4-ethoxybenzylidene)-3,4-dimethoxybenzohydrazide]	23.8 µM (≈ 7.82 µg/mL)	95.4 µM (≈ 31.3 µg/mL)	weakest antimicrobial activity	140 µM (≈ 46 µg/mL)					95.4 µM (≈ 31.3 µg/mL)	95.4 µM (≈ 31.3 µg/mL)	381 µM (≈ 125 µg/mL)	190 µM (≈ 62.6 µg/mL)	47.5 µM (≈ 15.6 µg/mL)	381 µM (≈ 125 µg/mL)	23.8 µM (≈ 7.82 µg/mL)	95.4 µM (≈ 31.3 µg/mL)	23.8 µM (≈ 7.82 µg/mL)	MIC ([2]; 24 h): 23.3 µM (≈ 7.64 µg/mL); MIC ([17]; ATCC10145, 24 h): 23.3 µM (≈ 7.64 µg/mL); MIC ([19]; ATCC25922, 24 h): 23.3 µM (≈ 7.64 µg/mL)
COc1ccc(C(=O)NN=Cc2ccc(NC(C)=O)cc2)cc1OC [Compound 4c, N-(4-((2–(3,4-dimethoxybenzoyl)hydrazono)methyl)phenyl)acetamide]	183 µM (≈ 62.5 µg/mL)	91.8 µM (≈ 31.3 µg/mL)	moderate antimicrobial potential	81.4 µM (≈ 27.8 µg/mL)		91.8 µM (≈ 31.3 µg/mL)	91.8 µM (≈ 31.3 µg/mL)				45.7 µM (≈ 15.6 µg/mL)	91.8 µM (≈ 31.3 µg/mL)	45.7 µM (≈ 15.6 µg/mL)	183 µM (≈ 62.5 µg/mL)	22.9 µM (≈ 7.81 µg/mL)	45.7 µM (≈ 15.6 µg/mL)	22.9 µM (≈ 7.81 µg/mL)	
COc1ccc(C(=O)NN=Cc2c(C)cc(C)cc2C)cc1OC [Compound 4d, N'-(2,4,6-trimethylbenzylidene)-3,4-dimethoxybenzohydrazide]	96 µM (≈ 31.3 µg/mL)	192 µM (≈ 62.5 µg/mL)	weakest antimicrobial activity	149 µM (≈ 48.7 µg/mL)	192 µM (≈ 62.5 µg/mL)	192 µM (≈ 62.5 µg/mL)	192 µM (≈ 62.5 µg/mL)			192 µM (≈ 62.5 µg/mL)	96 µM (≈ 31.3 µg/mL)	192 µM (≈ 62.5 µg/mL)	192 µM (≈ 62.5 µg/mL)	383 µM (≈ 125 µg/mL)	96 µM (≈ 31.3 µg/mL)	47.8 µM (≈ 15.6 µg/mL)	47.8 µM (≈ 15.6 µg/mL)	
COc1ccc(C(=O)NN=Cc2cc(Br)cc(Br)c2O)cc1OC [Compound 4e, N'-(3,5-dibromo-2-hydroxybenzylidene)-3,4-dimethoxybenzohydrazide]	68.7 µM (≈ 31.4 µg/mL)		moderate antimicrobial activity	72.4 µM (≈ 33.2 µg/mL)	68.7 µM (≈ 31.4 µg/mL)			68.7 µM (≈ 31.4 µg/mL)			137 µM (≈ 62.8 µg/mL)	34.2 µM (≈ 15.7 µg/mL)	17.1 µM (≈ 7.85 µg/mL)	137 µM (≈ 62.8 µg/mL)	68.7 µM (≈ 31.4 µg/mL)	34.2 µM (≈ 15.7 µg/mL)	17.1 µM (≈ 7.85 µg/mL)	MIC ([3]; C. albicans (CA), read-out: MIC): 137 µM (≈ 62.8 µg/mL)
COc1ccc(C(=O)NN=Cc2cc(Cl)cc(Cl)c2O)cc1OC [Compound 4f, N'-(3,5-dichloro-2-hydroxybenzylidene)-3,4-dimethoxybenzohydrazide]	85 µM (≈ 31.4 µg/mL)	85 µM (≈ 31.4 µg/mL)	moderate antimicrobial activity	73.2 µM (≈ 27 µg/mL)				85 µM (≈ 31.4 µg/mL)			42.4 µM (≈ 15.7 µg/mL)	42.4 µM (≈ 15.7 µg/mL)	21.2 µM (≈ 7.83 µg/mL)	85 µM (≈ 31.4 µg/mL)	85 µM (≈ 31.4 µg/mL)	170 µM (≈ 62.7 µg/mL)	42.4 µM (≈ 15.7 µg/mL)	IC50 [12]: 2160 µM
COc1ccc(C(=O)NN=Cc2cc(C(C)(C)C)cc(C(C)(C)C)c2O)cc1OC [Compound 4g, N'-(3,5-di-tert-butyl-2-hydroxybenzylidene)-3,4-dimethoxybenzohydrazide]	37.8 µM (≈ 15.6 µg/mL)	37.8 µM (≈ 15.6 µg/mL)	moderate antimicrobial activity	73.7 µM (≈ 30.4 µg/mL)		75.9 µM (≈ 31.3 µg/mL)		75.9 µM (≈ 31.3 µg/mL)		75.9 µM (≈ 31.3 µg/mL)	18.9 µM (≈ 7.82 µg/mL)	75.9 µM (≈ 31.3 µg/mL)	37.8 µM (≈ 15.6 µg/mL)	152 µM (≈ 62.5 µg/mL)	75.9 µM (≈ 31.3 µg/mL)	152 µM (≈ 62.5 µg/mL)	75.9 µM (≈ 31.3 µg/mL)	
CCCCCCCCCCCCOc1ccc(C=NNC(=O)c2ccc(OC)c(OC)c2)cc1 [Compound 4j, N'-(4-(dodecyloxy)benzylidene)-3,4-dimethoxybenzohydrazide]	33.3 µM (≈ 15.6 µg/mL)	267 µM (≈ 125 µg/mL)	moderate antimicrobial activity	74.2 µM (≈ 34.7 µg/mL)		33.3 µM (≈ 15.6 µg/mL)		66.8 µM (≈ 31.3 µg/mL)		66.8 µM (≈ 31.3 µg/mL)	16.7 µM (≈ 7.82 µg/mL)	16.7 µM (≈ 7.82 µg/mL)	33.3 µM (≈ 15.6 µg/mL)	134 µM (≈ 62.6 µg/mL)	33.3 µM (≈ 15.6 µg/mL)	66.8 µM (≈ 31.3 µg/mL)	66.8 µM (≈ 31.3 µg/mL)	MBC [20]: 66.8 µM (≈ 31.3 µg/mL)
CO/N=C(\C(=O)N[C@@H]1C(=O)N2C(C(=O)O)=C(CSc3nc(=O)c(=O)[nH]n3C)CS[C@H]12)c1csc(N)n1 [ceftriaxone, reference compound]	14.1 µM (≈ 7.81 µg/mL)				113 µM (≈ 62.5 µg/mL)			113 µM (≈ 62.5 µg/mL)	225 µM (≈ 125 µg/mL)	225 µM (≈ 125 µg/mL)			14.1 µM (≈ 7.81 µg/mL)			3.52 µM (≈ 1.95 µg/mL)		MBC [20]: 113 µM (≈ 62.5 µg/mL)
